Entries after “also recorded” stand apart in the source; their conditions may differ.

The text below walks through data of US9034825B2, “Treatment of myocardial injury with humanin analogs” (Albert Einstein College of Medicine of Yeshiva University, priority 2007, dated 2015).

The data set deals with Sprague-Dawley rats. The data set is described as follows: ICV infusion of IGF-1, IGFBP-3 or NLS mutant with basal and hyperinsulinemic clamp. The format is in vivo, rat. An excerpt:
Young (3 mo old, n=6 in each group), male Sprague-Dawley rats (Charles River Laboratories, Wilmington, Mass.) were used for this study. Rats were housed in individual cages and were subjected to a standard light (6:00 AM to 6:00 PM)—dark (6:00 PM to 6:00 AM) cycle. All rats were fed ad libitum using regular rat chow that consisted of 64% carbohydrate, 30% protein, and 6% fat with a physiological fuel value of 3.3-kcal/g chow. In the rats that received ICV infusions, 2 to 4 weeks before the in vivo study, the rats were anesthetized by inhalation of isoflurane and a cannula was placed ICV in the third ventricle for infusions of IGF-1, IGFBP-3 or IGFBP-3 mutant or artificial cerebrospinal fluid (aCSF), as previously described (Muzumdar et al., 2003) (FIG. 1). Briefly, a 26-gauge stainless steel guide cannula (Plastics One, Roanoke, Va.) was chronically implanted into the third ventricles using the following coordinates from bregma: anterior-posterior; +0.2 mm dorsal-ventral; −9.0 mm medial-lateral; 0.0 directly on the mid-sagittal suture, followed by a 28-gauge dummy cannula, inserted to prevent clogging of the guide cannula. The implant was secured to the skull with Caulk Grip dental cement, and the skin was closed over the implant using wound clips. The recovery of rats from the surgical stress was monitored with daily weight, food intake, and movement.
Upon recovery of body weight, usually a week, indwelling catheters were placed in the right internal jugular vein and in the left carotid artery (Muzumdar et al., 2003). The venous catheter was extended to the level of the right atrium, and the arterial catheter was advanced to the level of the aortic arch. Recovery was continued until body weight was within 3% of the pre-operative weight (˜4-6 days). In the rats that received peripheral IGFBP-3, only the vascular catheters were placed.
Studies were performed in unrestrained rats using the insulin clamp technique, in combination with high performance liquid chromatography-purified [3-^3H]glucose and [U-^14C]lactate infusions, as described previously (Liu et al., 1998). Food was removed for ˜5 h before the in vivo protocol. All studies lasted 360 min and included a 120-min equilibration period, a 120-min basal period for assessment of the basal glucose turnover, and a 120-min hyperinsulinemic clamp period. All rats received ICV infusions (bolus followed by continuous ICV infusions of IGF-1, IGFBP-3, IGFBP-3 mutant or aCSF, depending on the group) over the entire 6 hours of the study. At the beginning of the basal period and 120 min before starting the glucose/insulin infusions, a primed-continuous infusion of high performance liquid chromatography-purified [3-^3H]glucose (NEN Life Science Products, Boston, Mass.; 20 μCi of bolus, 0.2 μCi/min) was initiated and maintained throughout the remaining 4 h of the study. In the final 2 hours of the study, the rats were subjected to hyperinsulinemic clamp. The protocol followed during the insulin clamp study was similar to that previously described (Liu et al., 1998). Briefly, a primed-continuous infusion of regular insulin (3 milliunits/kg·min) was administered, and a variable infusion of a 25% glucose solution was started and periodically adjusted to clamp the plasma glucose concentration at 7-8 mM. To prevent endogenous insulin secretion and in order to control for possible effects of ICV infusions on the endocrine pancreas, somatostatin (1.5 μg/kg·min) was also infused in all the groups. [U-^14C]Lactate (5 μCi of bolus/0.25 μCi/min) was infused during the last 10 min of the study.
A bolus of hIGF-1 (0.3 mcg, a gift from Tercica, South San Francisco) was followed by a continuous infusion over 6 hours (total dose of 1 mcg, 0.06 μg/kg/hr).
A bolus of non glycosylated hIGFBP-3 (1.25 μg, generously provided by Celtrix, Mountain View Calif.) was followed by a continuous infusion over 6 hours (total dose of 5.25 mcg, 0.26 μg/kg/hr). […]

[1] abbreviates: ICV IGFBP-3, insulin clamp 3 mU/kg/min.
The mark [2] stands for this setting: ICV IGFBP-3 or NLS mutant over 6 h, basal period.
Setting [3] is: ICV IGFBP-3 or NLS mutant over 6 h, hyperinsulinemic clamp.
Setting [4] is: ICV infusion, hyperinsulinemic clamp.

For the substance “IGFBP-3: non glycosylated hIGFBP-3 (IGF binding protein-3), provided by Celtrix”, under setting [1], the “decrease in peripheral glucose uptake” value was approximately 30% and the “increase in hepatic glucose production compared to controls” value was 45%. Under setting [2], the “Glycogen synthesis, Basal” value is 4.62 ± 0.69; the “Glycolysis, Basal” value is recorded as 9.33 ± 1.27 mg/kg/min; the “HGP, Basal” value is reported as 13.95 ± 0.99 mg/kg/min. Further, under setting [3], the “Glycogen synthesis, Clamp” value was 4.46 ± 0.68; the “Glycolysis, Clamp” value worked out at 9.95 ± 1.05 mg/kg/min; the “HGP, Clamp” value is 7.08 ± 0.59 mg/kg/min; the “Rd, Clamp” value is reported as 14.01 ± 0.82 mg/kg/min. Moreover, the “GIR, Clamp” value (ICV IGFBP-3 or NLS mutant over 6 h, hyperinsulinemic clamp 3 mU/kg/min) came out at 6.95 ± 1.11 mg/kg/min. In addition, the FFA (ICV IGFBP-3 or NLS mutant over 6 h, hyperinsulinemic clamp, last 60 min) was determined as 0.72 ± 0.06 mEq/l. Besides, for the setting “ICV IGFBP-3 or NLS mutant over 6 h, peripheral plasma”, the h-IGFBP-3 was determined as 0 ng/mL. Moreover, under setting [4], the gluconeogenesis was 0.37 ± 0.1 mg/kg/min, the “glycogenolysis / hepatic glucose fluxes compared to controls” value is listed as “significant increase” and the “insulin induced suppression of FFA compared to controls” value is given as “significantly reduced”. Also, the “whole body glucose disposal / peripheral glucose uptake (Rd) compared to controls” value (ICV infusion, hyperinsulinemic clamp, final 60 min) is “significantly decreased”. The “infused human peptide in the rat periphery” value (after ICV infusion) is listed as “No hIGFBP-3 was detected; also recorded: No human IGF-1, hIGFBP-3 or NLS-IGFBP-3 was identified”.
